Test results as given in the NIST ThermoML archive (doi:10.1016/j.fluid.2006.01.008).

What was measured:
[1] = 298.15 K, 101.33 kPa, Liquid; for viscosity: Capillary tube (Ostwald / Ubbelohde) method; for speed of sound: Sing-around technique in a fixed-path interferometer; for mass density: Vibrating tube method
[2] = refractive index (Na D-line) (dimensionless); conditions: 298.15 K; 101.33 kPa; Liquid; Standard Abbe refractometry
[3] = xn = mol fraction of the nth substance listed; conditions: 298.15 K, 101 kPa, Liquid; for viscosity: Capillary tube (Ostwald / Ubbelohde) method; for speed of sound: Sing-around technique in a fixed-path interferometer; for mass density: Vibrating tube method
[4] = refractive index (Na D-line) (dimensionless); xn = mol fraction of the nth substance listed; conditions: 298.15 K, 101 kPa, Liquid, Standard Abbe refractometry

CCO [ethanol]
Conditions	mass density [kg/m3]	refractive index	speed of sound [m/s]	viscosity [mPa·s]
[1]	785.22	–	1144	1.077
[2]	–	1.3592	–	–

CCCCCCCC[n+]1ccn(C)c1.F[B-](F)(F)F [1-methyl-3-octylimidazolium tetrafluoroborate] + CCCO
Conditions	mass density, [3] [kg/m3]	refractive index, [4]	speed of sound, [3] [m/s]	viscosity, [3] [mPa·s]
x1 = 0.0473	844.63	1.39108	1232	2.789
x1 = 0.0982	883.64	1.3978	1256	3.942
x1 = 0.2034	943.18	1.40783	1306	7.531
x1 = 0.241	959.69	1.41061	1321	9.169
x1 = 0.2958	980.53	1.41405	1343	12.21
x1 = 0.4007	1012.5	1.41928	1377	20.65
x1 = 0.4355	1021.38	1.42071	1387	24.52
x1 = 0.4988	1035.79	1.42301	1403	33.31
x1 = 0.5506	1046.19	1.42472	1414	43.39
x1 = 0.6165	1057.95	1.42671	1428	59.9
x1 = 0.6778	1067.63	1.42832	1439	79.52
x1 = 0.7828	1081.97	1.43069	1457	130.9
x1 = 0.9118	1096.63	1.43297	1477	238.4

CO [methanol]
Conditions	mass density [kg/m3]	refractive index	speed of sound [m/s]	viscosity [mPa·s]
[1]	786.63	–	1102	0.541
[2]	–	1.3264	–	–

CCCCCCCC[n+]1ccn(C)c1.F[B-](F)(F)F [1-methyl-3-octylimidazolium tetrafluoroborate] + CCO
Conditions	mass density, [3] [kg/m3]	refractive index, [4]	speed of sound, [3] [m/s]	viscosity, [3] [mPa·s]
x1 = 0.0517	849.43	1.37489	1195	1.74
x1 = 0.0818	878.24	1.38179	1218	2.25
x1 = 0.1822	946.85	1.39805	1287	4.722
x1 = 0.2779	988.78	1.40778	1336	8.542
x1 = 0.378	1019.53	1.41488	1376	14.99
x1 = 0.46	1038.64	1.41926	1398	23.42
x1 = 0.5474	1054.97	1.42304	1419	37.38
x1 = 0.5537	1056.01	1.42326	1420	38.62
x1 = 0.5636	1057.63	1.42362	1422	40.81
x1 = 0.6203	1066.22	1.4256	1434	54.88
x1 = 0.662	1071.9	1.42683	1441	67.91
x1 = 0.7749	1085.35	1.42973	1459	120.4
x1 = 0.9286	1099.7	1.43293	1481	251.9
